# Test results from publication PMC9032718, “Eltrombopag as an Allosteric Inhibitor of the METTL3-14 Complex Affecting the m^6A Methylation of RNA in Acute Myeloid Leukemia Cells” (Pharmaceuticals, 2022).
# Key:
# METTL3-14 complex = target: T1, METTL3-14 complex (Homo sapiens, UniProt Q86U44); test: METTL3-14 enzyme-based bioluminescence assay (screening assay); type: biochemical; details: for Km: Michaelis-Menten, Figure S1, read-out: Km of METTL3-14 substrates; for inhibition at 60 µM: read-out: % inhibition of METTL3-14 at 60 μM, 60 μM compound
# T1 construct: genes encoding the full-length and MTase domain of human METTL3; METTL3-14 FL: full length of METTL3-14; 10x His (thrombin-cleavable) (cleaved yes); made in house; host or cells: Trichoplusia ni (Hi5) cells co-infected with two baculoviruses (virus made in Sf9)
# T1 sequence (Q86U44 whole entry, the tested form may be a part): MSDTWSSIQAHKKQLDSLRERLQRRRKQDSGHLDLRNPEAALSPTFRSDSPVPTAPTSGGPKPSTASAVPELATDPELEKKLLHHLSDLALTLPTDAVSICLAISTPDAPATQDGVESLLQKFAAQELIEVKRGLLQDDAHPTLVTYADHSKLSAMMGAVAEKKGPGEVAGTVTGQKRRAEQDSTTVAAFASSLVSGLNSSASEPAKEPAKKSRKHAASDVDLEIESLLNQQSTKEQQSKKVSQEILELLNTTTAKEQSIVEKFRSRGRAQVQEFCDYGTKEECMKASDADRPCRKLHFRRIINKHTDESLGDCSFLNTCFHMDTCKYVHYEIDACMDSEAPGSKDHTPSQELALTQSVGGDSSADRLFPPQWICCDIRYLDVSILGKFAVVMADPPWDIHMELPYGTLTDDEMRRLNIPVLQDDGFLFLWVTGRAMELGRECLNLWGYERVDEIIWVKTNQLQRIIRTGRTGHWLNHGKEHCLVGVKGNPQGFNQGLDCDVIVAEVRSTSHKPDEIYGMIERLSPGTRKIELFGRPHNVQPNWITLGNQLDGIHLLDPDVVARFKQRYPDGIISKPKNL
# T1 sequence (Q9HCE5 whole entry partner, the tested form may be a part): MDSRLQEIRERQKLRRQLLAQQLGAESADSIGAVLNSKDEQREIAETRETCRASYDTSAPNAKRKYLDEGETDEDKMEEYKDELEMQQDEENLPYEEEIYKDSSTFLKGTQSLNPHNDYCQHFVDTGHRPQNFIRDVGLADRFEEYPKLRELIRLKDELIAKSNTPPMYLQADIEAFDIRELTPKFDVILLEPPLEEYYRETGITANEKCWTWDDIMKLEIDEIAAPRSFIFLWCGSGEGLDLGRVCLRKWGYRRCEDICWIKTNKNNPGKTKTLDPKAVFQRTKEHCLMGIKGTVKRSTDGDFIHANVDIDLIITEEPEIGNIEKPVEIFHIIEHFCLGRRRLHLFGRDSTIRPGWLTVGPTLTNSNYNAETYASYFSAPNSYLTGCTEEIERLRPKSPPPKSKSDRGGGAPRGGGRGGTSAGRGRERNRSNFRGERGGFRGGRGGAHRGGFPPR
# Procedure: An enzymatic bioluminescence assay was established to identify the METTL3-14 inhibitor through screening. […] METTL3-14 activity was assessed by measuring the luminescence using a Victor multilabel reader (PerkinElmer, Waltham, MA, USA). The IC50 values were calculated by a nonlinear regression analysis using OriginPro 9.1 software (OriginLab).
# To confirm the mechanism of action of eltrombopag in the METTL3-14 complex, 30 nM METTL3-14 and serially diluted eltrombopag were reacted with various concentrations of SAM or RNA substrate and saturating concentrations of the other substrate (3 μM SAM or 2 μM RNA substrate) for 20 min. To evaluate the inhibitory activity in a single form of METTL3 and METTL14, 1 μM of METTL3 and 300 nM of METTL14 were incubated with 1 μM of SAM, 500 nM of RNA substrates, and serially diluted eltrombopag for 5 h. To measure the inhibitory activity in the truncated form of the METTL3-14 complex, 1 μM of the truncated METTL3-14 complex was reacted with 1 μM of SAM, 500 nM of RNA substrates, and serially diluted eltrombopag for 5 h.
# MOLM-13 cells [1] = test: Combinatorial analysis of AML drugs with eltrombopag (EZ-cytox, Synergyfinder); type: cell-based; details: Homo sapiens, MOLM-13, 72 h, eltrombopag 0 nM; for inhibition at 0.00167 µM: AML drug alone 1.67 nM; for inhibition at 0.005 µM: AML drug alone 5 nM; for inhibition at 0.015 µM: AML drug alone 15 nM; for inhibition at 0.045 µM: AML drug alone 45 nM
# Procedure: The MOLM-13 cells were seeded in white 96-well clear bottomed plates with 50 μL of medium (5000 cells/well). The plated cells were treated with serially diluted eltrombopag and current AML drugs, including venetoclax, cytarabine, gilteritinib, and sorafenib, to a final volume of 100 μL and incubated for 72 h at 37 °C. After incubation, 10 μL of EZ-cytox kit reagent from the EZ-cytox cell viability assay kit (DaeiLab) was added to each well and then incubated for 3 h at 37 °C. The absorbance of metabolically active cells was measured at a wavelength of 450 nm using a Victor multilabel reader (PerkinElmer). The synergy scores of each combination were quantified by the HAS model, ZIP model, Loewe additivity model, and Bliss independence models using Synergyfinder software. Positive or negative synergy scores obtained through these models represent synergy and antagonism, respectively.
# [2] = tested on: m^6A/A on poly-A+-enriched mRNA of MOLM-13 cells; set-up: method as in PMID 34237194; details: cited from earlier work
# MOLM-13 cells [3] = test: Anti-proliferative assay (EZ-cytox), MOLM-13; type: cell-based; details: Homo sapiens
# Procedure: The MOLM-13, MOLM-14, HL60, MV4-11, and THP-1 cells were seeded in white 96-well clear bottomed plates with 100 μL of medium (5000 cells/well). The plated cells were treated with serially diluted compounds and incubated for 72 h at 37 °C. After incubation, 10 μL of EZ-cytox kit reagent from the EZ-cytox cell viability assay kit (DaeiLab, Seoul, Korea) was added to each well and then incubated for 3 h at 37 °C. The absorbance of metabolically active cells was measured at a wavelength of 450 nm using a Victor multilabel reader (PerkinElmer). The GI50 values were calculated by nonlinear regression analysis using OriginPro 9.1 software (OriginLab).
# [4] = tested on: m^6A methylation of MOLM-13 transcriptome; set-up: method as in PMID 33902106; details: cited from earlier work
# SETD2 = target: T2, SETD2 (Homo sapiens, UniProt Q9BYW2); test: Methyltransferase selectivity panel (MT HotSpot radioisotope assay), SETD2; type: biochemical; details: positive control
# T2 construct: purchased Reaction Biology (Malvern, PA, USA), contract assay
# T2 sequence (Q9BYW2 whole entry): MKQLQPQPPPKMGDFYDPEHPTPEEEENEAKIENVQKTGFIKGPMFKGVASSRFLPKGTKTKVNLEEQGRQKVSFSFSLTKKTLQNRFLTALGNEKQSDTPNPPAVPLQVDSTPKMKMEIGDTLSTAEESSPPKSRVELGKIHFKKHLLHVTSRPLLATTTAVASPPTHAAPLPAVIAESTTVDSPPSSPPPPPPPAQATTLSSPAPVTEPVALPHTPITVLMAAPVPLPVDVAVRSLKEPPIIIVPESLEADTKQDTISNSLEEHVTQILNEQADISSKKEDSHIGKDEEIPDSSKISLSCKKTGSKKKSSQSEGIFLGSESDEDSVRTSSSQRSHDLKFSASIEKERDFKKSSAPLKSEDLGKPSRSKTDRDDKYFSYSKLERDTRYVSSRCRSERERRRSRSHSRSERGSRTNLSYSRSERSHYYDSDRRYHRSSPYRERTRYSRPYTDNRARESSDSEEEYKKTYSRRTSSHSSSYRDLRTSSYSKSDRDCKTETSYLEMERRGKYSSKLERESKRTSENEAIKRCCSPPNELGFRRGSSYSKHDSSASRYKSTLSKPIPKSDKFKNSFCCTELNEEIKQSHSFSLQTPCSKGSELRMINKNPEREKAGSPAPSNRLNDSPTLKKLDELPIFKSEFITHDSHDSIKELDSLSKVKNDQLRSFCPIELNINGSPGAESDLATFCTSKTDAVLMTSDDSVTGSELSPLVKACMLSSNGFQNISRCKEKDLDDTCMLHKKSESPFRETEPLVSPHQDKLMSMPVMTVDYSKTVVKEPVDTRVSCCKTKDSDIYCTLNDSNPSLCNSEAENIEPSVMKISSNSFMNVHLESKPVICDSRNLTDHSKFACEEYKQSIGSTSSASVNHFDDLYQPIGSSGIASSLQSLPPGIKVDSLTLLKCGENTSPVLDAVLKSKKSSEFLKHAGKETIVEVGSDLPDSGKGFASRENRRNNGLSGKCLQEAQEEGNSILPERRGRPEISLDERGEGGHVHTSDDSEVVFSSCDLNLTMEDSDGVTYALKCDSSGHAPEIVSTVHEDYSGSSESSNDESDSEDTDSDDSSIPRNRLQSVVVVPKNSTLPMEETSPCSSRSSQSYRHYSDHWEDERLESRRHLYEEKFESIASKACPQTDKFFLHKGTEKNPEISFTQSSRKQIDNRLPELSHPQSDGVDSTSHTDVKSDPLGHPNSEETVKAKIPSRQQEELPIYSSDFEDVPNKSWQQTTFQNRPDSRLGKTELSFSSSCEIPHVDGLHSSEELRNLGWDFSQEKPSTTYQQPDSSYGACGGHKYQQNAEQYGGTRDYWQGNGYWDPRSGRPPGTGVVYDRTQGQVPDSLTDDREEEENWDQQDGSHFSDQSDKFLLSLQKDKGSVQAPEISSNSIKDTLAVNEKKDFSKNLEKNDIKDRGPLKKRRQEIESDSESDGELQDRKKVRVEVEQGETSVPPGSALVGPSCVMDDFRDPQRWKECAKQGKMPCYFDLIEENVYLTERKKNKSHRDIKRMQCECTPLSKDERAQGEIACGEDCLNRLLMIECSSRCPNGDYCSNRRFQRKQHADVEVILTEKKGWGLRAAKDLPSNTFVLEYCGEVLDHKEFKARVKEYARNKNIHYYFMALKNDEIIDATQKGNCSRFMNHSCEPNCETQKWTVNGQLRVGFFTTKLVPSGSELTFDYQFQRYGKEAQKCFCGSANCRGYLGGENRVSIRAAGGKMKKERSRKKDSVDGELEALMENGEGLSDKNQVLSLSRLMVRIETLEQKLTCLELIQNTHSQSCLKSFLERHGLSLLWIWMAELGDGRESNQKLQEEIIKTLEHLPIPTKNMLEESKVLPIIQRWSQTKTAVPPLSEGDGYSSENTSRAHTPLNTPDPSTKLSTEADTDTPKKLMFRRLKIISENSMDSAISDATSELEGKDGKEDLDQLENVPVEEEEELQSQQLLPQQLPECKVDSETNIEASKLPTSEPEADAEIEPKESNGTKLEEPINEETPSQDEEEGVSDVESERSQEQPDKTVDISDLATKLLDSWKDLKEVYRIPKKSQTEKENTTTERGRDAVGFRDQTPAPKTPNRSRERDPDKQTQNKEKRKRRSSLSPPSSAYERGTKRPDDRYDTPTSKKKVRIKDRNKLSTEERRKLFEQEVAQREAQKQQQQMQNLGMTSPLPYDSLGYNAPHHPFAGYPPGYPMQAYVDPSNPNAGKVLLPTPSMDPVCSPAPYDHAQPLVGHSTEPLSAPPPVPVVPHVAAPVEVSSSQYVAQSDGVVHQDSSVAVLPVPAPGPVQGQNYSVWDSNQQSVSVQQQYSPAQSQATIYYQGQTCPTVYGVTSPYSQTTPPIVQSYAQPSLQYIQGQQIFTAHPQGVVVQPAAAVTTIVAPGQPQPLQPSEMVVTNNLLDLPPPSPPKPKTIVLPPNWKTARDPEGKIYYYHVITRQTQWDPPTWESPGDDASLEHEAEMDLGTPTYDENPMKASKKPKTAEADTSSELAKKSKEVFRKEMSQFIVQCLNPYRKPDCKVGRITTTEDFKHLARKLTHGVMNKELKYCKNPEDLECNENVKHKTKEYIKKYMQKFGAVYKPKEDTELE
# Procedure: (§1) The selectivity profile of eltrombopag was investigated by testing the level of inhibition in a methyltransferase panel. The inhibition of 7 […] methyltransferase was tested at Reaction Biology (Malvern, PA, USA) using a gold standard radioisotope-based MT assay (MT HotSpot^TM) with 10 μM of eltrombopag in duplicate.
# PRDM9 = target: T3, PRDM9 (Homo sapiens, UniProt Q9NQV7); test: Methyltransferase selectivity panel (MT HotSpot radioisotope assay), PRDM9; type: biochemical; details: positive control
# T3 construct: purchased Reaction Biology (Malvern, PA, USA), contract assay
# T3 sequence (Q9NQV7 whole entry): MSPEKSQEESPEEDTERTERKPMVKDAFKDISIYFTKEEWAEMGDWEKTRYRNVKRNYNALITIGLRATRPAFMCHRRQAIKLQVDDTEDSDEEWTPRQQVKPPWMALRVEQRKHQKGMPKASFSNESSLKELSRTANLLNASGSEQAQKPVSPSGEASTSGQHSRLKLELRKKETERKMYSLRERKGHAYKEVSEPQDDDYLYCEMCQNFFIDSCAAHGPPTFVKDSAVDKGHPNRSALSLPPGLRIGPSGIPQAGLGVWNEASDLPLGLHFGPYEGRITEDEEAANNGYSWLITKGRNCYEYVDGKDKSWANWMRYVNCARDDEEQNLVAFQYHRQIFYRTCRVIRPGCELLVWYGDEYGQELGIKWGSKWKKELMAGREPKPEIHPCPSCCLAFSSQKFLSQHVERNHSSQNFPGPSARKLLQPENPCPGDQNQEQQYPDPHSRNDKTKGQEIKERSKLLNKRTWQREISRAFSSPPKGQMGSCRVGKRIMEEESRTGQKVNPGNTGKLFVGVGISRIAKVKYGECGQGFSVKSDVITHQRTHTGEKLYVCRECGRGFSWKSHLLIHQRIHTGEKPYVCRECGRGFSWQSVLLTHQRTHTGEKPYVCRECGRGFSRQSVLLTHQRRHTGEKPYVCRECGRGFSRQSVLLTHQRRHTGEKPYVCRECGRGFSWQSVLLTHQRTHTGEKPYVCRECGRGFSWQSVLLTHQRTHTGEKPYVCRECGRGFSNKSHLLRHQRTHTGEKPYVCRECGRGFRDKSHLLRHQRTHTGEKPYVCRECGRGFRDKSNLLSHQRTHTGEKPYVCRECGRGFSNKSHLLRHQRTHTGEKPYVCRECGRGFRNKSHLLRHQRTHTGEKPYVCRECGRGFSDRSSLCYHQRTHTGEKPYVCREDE
# Procedure: as §1
# SMYD3 = target: T4, SMYD3 (Homo sapiens, UniProt Q9H7B4); test: Methyltransferase selectivity panel (MT HotSpot radioisotope assay), SMYD3; type: biochemical
# T4 construct: purchased Reaction Biology (Malvern, PA, USA), contract assay
# T4 sequence (Q9H7B4 1-428): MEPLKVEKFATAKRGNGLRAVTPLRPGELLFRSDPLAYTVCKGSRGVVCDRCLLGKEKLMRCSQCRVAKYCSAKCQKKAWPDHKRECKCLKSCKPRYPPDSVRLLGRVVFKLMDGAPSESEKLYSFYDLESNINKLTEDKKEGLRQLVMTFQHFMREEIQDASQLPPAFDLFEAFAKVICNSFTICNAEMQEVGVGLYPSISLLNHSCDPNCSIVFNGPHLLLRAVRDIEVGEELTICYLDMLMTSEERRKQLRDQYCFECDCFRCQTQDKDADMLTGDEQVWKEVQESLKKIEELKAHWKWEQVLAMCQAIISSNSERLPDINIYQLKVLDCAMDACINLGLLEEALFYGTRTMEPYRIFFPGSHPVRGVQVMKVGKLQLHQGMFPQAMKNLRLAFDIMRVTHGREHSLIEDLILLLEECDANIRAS
# Procedure: as §1
# MLL4 complex = target: T5, MLL4 complex (Homo sapiens, UniProt Q9UMN6); test: Methyltransferase selectivity panel (MT HotSpot radioisotope assay), MLL4 complex; type: biochemical; details: positive control
# T5 construct: purchased Reaction Biology (Malvern, PA, USA), contract assay
# Procedure: as §1
# DOT1L = target: T6, DOT1L (Homo sapiens, UniProt Q8TEK3); test: Methyltransferase selectivity panel (MT HotSpot radioisotope assay), DOT1L; type: biochemical
# T6 construct: purchased Reaction Biology (Malvern, PA, USA), contract assay
# Procedure: as §1
compound,measurement,setting,value
"C[S+](CC[C@H](N)C(=O)O)C[C@H]1O[C@@H](n2cnc3c(N)ncnc32)[C@H](O)[C@@H]1O (stereo partly drawn) [SAM, S-(5′-adenosyl)-L-methionine]",Km,METTL3-14 complex,0.0986 µM
Nc1ccn([C@@H]2O[C@H](CO)[C@@H](O)[C@@H]2O)c(=O)n1 [Cytarabine],inhibition at 0.00167 µM,MOLM-13 cells [1],2.2 ± 3.1%
same,inhibition at 0.005 µM,MOLM-13 cells [1],20.7 ± 4.33%
same,inhibition at 0.015 µM,MOLM-13 cells [1],48.3 ± 1.93%
same,inhibition at 0.045 µM,MOLM-13 cells [1],75.7 ± 1.35%
CC1=NN(c2ccc(C)c(C)c2)C(=O)/C1=N\Nc1cccc(-c2ccccc2)c1O [Compound 14a],inhibition at 60 µM,METTL3-14 complex,23.3%
COC(=O)c1cccc(-c2cccc(N/N=C3\C(=O)N(c4ccc(C)c(C)c4)N=C3C)c2O)c1 [Compound 14b],inhibition at 60 µM,METTL3-14 complex,23.7%
"RNA: RNA substrate 5′-ACGAGUCCUGGACUGAAACGGACUUGU-3′ (RNA, backbone not given here)",Km,METTL3-14 complex,0.0705 µM
CC1(C)CCN(Cc2ccc(C(=O)NC[C@]3(O)CCCN(c4cc(NCc5ccccc5)ncn4)C3)c(O)c2)CC1 [UZH1a],"maximum m^6A inhibition, previously reported",[2],60–70%
"Nc1ncnc2c1ncn2[C@@H]1O[C@H](C[C@@H](N)CC[C@H](N)C(=O)O)[C@@H](O)[C@H]1O [Sinefungin, sinefungin]",GI50,"MOLM-13 cells [3]; MOLM-13, 72 h",24.8 ± 1.2 µM
CC1=NN(c2ccc(C)c(C)c2)C(=O)/C1=N\Nc1cccc(-c2cccc(C(=O)O)c2)c1 [Compound 14d],IC50,"METTL3-14 complex; full length METTL3-14 30 nM, SAM 300 nM, RNA substrate 300 nM, 1 h, read-out: IC50, METTL3-14 inhibition, bioluminescence enzyme based assay",15.3 µM
same,fold decrease of METTL3-14 inhibitory activity versus eltrombopag,METTL3-14 complex; relative to eltrombopag,4 fold
CCc1nc(C(N)=O)c(Nc2ccc(N3CCC(N4CCN(C)CC4)CC3)c(OC)c2)nc1NC1CCOCC1 [Gilteritinib],GI50,"MOLM-13 cells [3]; MOLM-13, 72 h, positive control, Figure S3",0.0166 µM
STM2457,"share of hypermethylation, previously reported",[4],about 30%
CC1(C)CCC(CN2CCN(c3ccc(C(=O)NS(=O)(=O)c4ccc(NCC5CCOCC5)c([N+](=O)[O-])c4)c(Oc4cnc5[nH]ccc5c4)c3)CC2)=C(c2ccc(Cl)cc2)C1 [Venetoclax],inhibition at 0.00167 µM,MOLM-13 cells [1],12.8 ± 3.69%
same,inhibition at 0.005 µM,MOLM-13 cells [1],29.2 ± 0.39%
same,inhibition at 0.015 µM,MOLM-13 cells [1],54.5 ± 3.76%
same,inhibition at 0.045 µM,MOLM-13 cells [1],77 ± 0.92%
"Nc1ncnc2c1ncn2[C@@H]1O[C@H](CSCC[C@H](N)C(=O)O)[C@@H](O)[C@H]1O [SAH, S-(5′-adenosyl)-L-homocysteine]",IC50,SETD2,10.8 µM
same,IC50,PRDM9,4.16 µM
same,IC50,SMYD3,35.3 µM
same,IC50,MLL4 complex,5.09 µM
CN1C(=O)[C@@]23C[C@]4([C@]56C[C@@]78SS[C@@](CO)(C(=O)N7[C@H]5Nc5ccccc56)N(C)C8=O)c5ccccc5N[C@@H]4N2C(=O)[C@]1(CO)SS3 [Chaetocin],IC50,DOT1L,0.217 µM
